Reference: patent publication US20250179047A1, “5-[7-(3,4-DIHYDRO-1H-ISOQUINOLINE-2-CARBONYL)-1,2,3,4 TETRAHYDROISOQUINOLIN-6-YL]-1H-PYRROLE-3-CARBOXAMIDE DERIVATIVES, PHARMACEUTICAL COMPOSITIONS CONTAINING THEM AND THEIR USES AS PRO-APOPTOTIC AGENTS” (LES LABORATOIRES SERVIER, priority 2022, published 2025)

Experiments:
BCL2 WT = BCL2 WT (Homo sapiens (Human), UniProt P10415); experiment: TR-FRET competitive binding assay, BCL2 WT; conditions: Ki determined from IC50, read-out: TR_FRET EKI_Bcl2 WT
How it was run: (§1)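 Competitive TR-FRET displacement of fluorescein-PUMA peptide (2 or 20 nM) from 0.5 nM terbium-labelled N-terminal Halo-fusion BCL2 (1-207, wild type or mutant) or BCLXL (2-196), expressed in E. coli. Buffer 50 mM Hepes pH 7.5, 150 mM NaCl, 5% DMSO; 2 h at 23°C. 520/495 nm ratio fitted over 11 points for IC50, converted to Ki.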

BCL2 G101V [1] = molecular target: BCL2 G101V (Homo sapiens, UniProt P10415, G101V); experiment: TR-FRET competitive binding assay, BCL2 G101V; conditions: BCL2 G101V; Ki determined from IC50; read-out: TR_FRET EKI_Bcl2 G101V
How it was run: as §1

BCL2 G101V [2] = experiment: TR-FRET competitive binding assay, BCL2 G101V; design: species or system human; conditions: ratio Ki BCL2 G101V / Ki BCL2 WT
How it was run: as §1

BCL2 D103Y = BCL2 D103Y (Homo sapiens, UniProt P10415, D103Y); experiment: TR-FRET competitive binding assay, BCL2 D103Y; conditions: Ki determined from IC50, read-out: TR_FRET EKI_Bcl2 D103Y
How it was run: as §1

BCLXL WT = BCLXL WT (Homo sapiens (Human), UniProt Q07817); experiment: TR-FRET competitive binding assay, BCLXL WT; conditions: for Ki: BCLXL WT, Ki determined from IC50, read-out: TR_FRET EKI BclxL; for TR_FRET EKI BCLxL/WT selectivty ratio: ratio Ki BCLxL / Ki BCL2 WT
Sequence of BCLXL WT (Q07817 other isoform, or with tags, fused parts or gaps): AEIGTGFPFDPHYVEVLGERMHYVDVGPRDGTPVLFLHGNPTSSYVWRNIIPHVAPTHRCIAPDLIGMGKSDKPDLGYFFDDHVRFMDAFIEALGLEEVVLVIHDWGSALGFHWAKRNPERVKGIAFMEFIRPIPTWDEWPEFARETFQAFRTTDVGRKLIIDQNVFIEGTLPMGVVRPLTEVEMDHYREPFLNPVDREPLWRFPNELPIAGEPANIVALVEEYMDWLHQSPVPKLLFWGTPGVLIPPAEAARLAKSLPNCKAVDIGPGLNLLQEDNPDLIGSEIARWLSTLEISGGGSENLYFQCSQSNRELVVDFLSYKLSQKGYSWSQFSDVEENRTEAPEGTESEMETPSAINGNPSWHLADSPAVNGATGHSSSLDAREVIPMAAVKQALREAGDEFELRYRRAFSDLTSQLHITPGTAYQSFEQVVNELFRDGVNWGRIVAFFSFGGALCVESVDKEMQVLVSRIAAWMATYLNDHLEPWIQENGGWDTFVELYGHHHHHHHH
How it was run: as §1

KMS-12-PE Bcl-2 WT = experiment: In vitro cytotoxicity CellTiter-Glo 48 h, KMS-12-PE Bcl-2 WT; type: cell-based; conditions: Homo sapiens, KMS-12-PE, C50 = concentration needed to reach 50% of the cellular viability
How it was run: (§2)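 CTG luminescence read-out; C50 = concentration reaching 50% cellular viability. Cells: KMS-12-PE expressing Bcl-2 WT or G101V (lentiviral, TagRFP-sorted). 11-pt curve, 48 h, 37 °C/5% CO2.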

KMS-12-PE Bcl-2 G101V = experiment: In vitro cytotoxicity CellTiter-Glo 48 h, KMS-12-PE Bcl-2 G101V; type: cell-based; conditions: for Ratio (G101V/WT): C50 KMS-12-PE Bcl-2 G101V over C50 KMS-12-PE Bcl-2 WT; for IC50: Homo sapiens, KMS-12-PE, 48 h, CellTiter-Glo, C50 = concentration needed to reach 50% of the cellular viability
How it was run: as §2

Ki (BCL2 WT) [nM] | Ki (BCL2 G101V [1]) [nM] | TR_FRET EKI G101V/WT selectivty ratio (BCL2 G101V [2]) | Ki (BCL2 D103Y) [nM] | Ki (BCLXL WT) [nM] | TR_FRET EKI BCLxL/WT selectivty ratio (BCLXL WT) | SMILES | IC50 (KMS-12-PE Bcl-2 WT) [µM] | Ratio (G101V/WT) (KMS-12-PE Bcl-2 G101V) | IC50 (KMS-12-PE Bcl-2 G101V) [µM]
0.11 | 0.5 | 4.4 | 0.39 | 3.2 | 29.1 | COC[C@@H]1Cc2ccccc2CN1C(=O)c1cc2c(cc1-c1cc(C(=O)N(c3ccc(O)cc3)c3cc(C#N)n(C(F)F)c3C)c(C)n1C)CCN(C(=O)Cc1ccc(OCCN3CCOCC3)cc1)C2 [Example 172, N-[5-cyano-1-(difluoromethyl)-2-methyl-pyrrol-3-yl]-N-(4-hydroxyphenyl)-5-[7-[(3S)-3-(methoxymethyl)-3,4-dihydro-1H-isoquinoline-2-carbonyl]-2-[2-[4-(2-morpholinoethoxy)phenyl]acetyl]-3,4-dihydro-1H-isoquinolin-6-yl]-1,2-dimethyl-pyrrole-3-carboxamide] | 0.0061 | 4.6557 | 0.0284
0.05 | 0.4 | 7.0 | 0.19 | 3.3 | 61.1 | Cc1c(N(C(=O)c2cc(-c3cc4c(cc3C(=O)N3Cc5ccccc5C[C@H]3CN3CCCCC3)CN(C(=O)Cc3ccc(OCCN(C)CCF)cc3)CC4)n(C)c2C)c2ccc(O)cc2)cc(C#N)n1C [Example 116, N-(5-cyano-1,2-dimethyl-1H-pyrrol-3-yl)-5-{2-[2-(4-{2-[(2-fluoroethyl)(methyl)amino]ethoxy}phenyl)acetyl]-7-[(3S)-3-[(piperidin-1-yl)methyl]-1,2,3,4-tetrahydroisoquinoline-2-carbonyl]-1,2,3,4-tetrahydroisoquinolin-6-yl}-N-(4-hydroxyphenyl)-1,2-dimethyl-1H-pyrrole-3-carboxamide] | 0.0111 | 5.25 | 0.0583
0.1 | 1.1 | 11.2 | 0.23 | 1.9 | 19.4 | Cc1c(N(C(=O)c2cc(-c3cc4c(cc3C(=O)N3Cc5ccccc5C[C@H]3CN3CCCCC3)CN(C(=O)Cc3ccc(COCC5CCOCC5)cc3)CC4)n(C)c2C)c2ccc(O)cc2)cc(C#N)n1C [Example 149, N-(5-cyano-1,2-dimethyl-1H-pyrrol-3-yl)-N-(4-hydroxyphenyl)-1,2-dimethyl-5-{2-[2-(4-{[(oxan-4-yl)methoxy]methyl}phenyl)acetyl]-7-[(3S)-3-[(piperidin-1-yl)methyl]-1,2,3,4-tetrahydroisoquinoline-2-carbonyl]-1,2,3,4-tetrahydroisoquinolin-6-yl}-1H-pyrrole-3-carboxamide] | 0.0239 | 10.921 | 0.261
0.19 | 1.2 | 6.7 | 0.35 | 6.3 | 33.9 | Cc1c(N(C(=O)c2cc(-c3cc4c(cc3C(=O)N3Cc5ccccc5C[C@H]3CN3CCCCC3)CN(C(=O)Cc3ccc(OCCN5CCC(F)(F)C5)cc3)CC4)n(C)c2C)c2ccc(O)cc2)cc(C#N)n1C [Example 82, N-(5-cyano-1,2-dimethylpyrrol-3-yl)-5-[2-(2-{4-[2-(3,3-difluoropyrrolidin-1-yl)ethoxy]phenyl}acetyl)-7-{[(3S)-3-(piperidin-1-ylmethyl)-3,4-dihydro-1H-isoquinolin-2-yl]carbonyl}-3,4-dihydro-1H-isoquinolin-6-yl]-N-(4-hydroxyphenyl)-1,2-dimethylpyrrole-3-carboxamide] | 0.0095 | 6.45 | 0.0572
0.05 | 0.5 | 10.0 | 0.12 | 12.4 | 229.0 | Cc1ncc(N(C(=O)c2cc(-c3cc4c(cc3C(=O)N3Cc5ccccc5C[C@H]3CN3CCCCC3)CN(C(=O)Cc3ccc(OCCN5CCOCC5)cc3F)CC4)n(C)c2C)c2ccc(O)cc2)cc1C#N [Example 177, N-(5-cyano-6-methyl-3-pyridyl)-5-[2-[2-[2-fluoro-4-(2-morpholinoethoxy)phenyl]acetyl]-7-[(3S)-3-(1-piperidylmethyl)-3,4-dihydro-1H-isoquinoline-2-carbonyl]-3,4-dihydro-1H-isoquinolin-6-yl]-N-(4-hydroxyphenyl)-1,2-dimethyl-pyrrole-3-carboxamide] | 0.0052 | 11.238 | 0.0581
0.21 | 1.7 | 8.1 | 0.51 | 2.3 | 11.0 | Cc1c(N(C(=O)c2cc(-c3cc4c(cc3C(=O)N3Cc5ccccc5C[C@H]3C)CN(Cc3cc5ccccc5cn3)CC4)n(C)c2C)c2ccc(O)cc2)cc(C#N)n1C [Example 58, N-(5-cyano-1,2-dimethylpyrrol-3-yl)-N-(4-hydroxyphenyl)-5-[2-(isoquinolin-3-ylmethyl)-7-{[(3R)-3-methyl-3,4-dihydro-1H-isoquinolin-2-yl]carbonyl}-3,4-dihydro-1H-isoquinolin-6-yl]-1,2-dimethylpyrrole-3-carboxamide] | 0.005 | 7.95 | 0.0396
0.13 | 0.4 | 3.5 | 0.38 | 5.2 | 41.6 | Cc1c(N(C(=O)c2cc(-c3cc4c(cc3C(=O)N3Cc5ccccc5C[C@H]3CN3CCC[C@H](C)C3)CN(C(=O)Cc3ccc(OCCN5CCOCC5)cc3)CC4)n(C)c2C)c2ccc(O)cc2)cc(C#N)n1C [Example 153, N-(5-cyano-1,2-dimethyl-pyrrol-3-yl)-N-(4-hydroxyphenyl)-1,2-dimethyl-5-[7-[(3S)-3-[[(3S)-3-methyl-1-piperidyl]methyl]-3,4-dihydro-1H-isoquinoline-2-carbonyl]-2-[2-[4-(2-morpholinoethoxy)phenyl]acetyl]-3,4-dihydro-1H-isoquinolin-6-yl]pyrrole-3-carboxamide] | 0.0095 | 5.3741 | 0.051
0.08 | 0.6 | 7.5 | 0.13 | 9.3 | 120.8 | COc1ncc(N(C(=O)c2cc(-c3cc4c(cc3C(=O)N3Cc5ccccc5C[C@H]3CN3CCCCC3)CN(C(=O)Cc3ccc(OCCN5CCOCC5)cc3F)CC4)n(C)c2C)c2ccc(O)cc2)cc1F [Example 164, 5-[2-(2-{2-fluoro-4-[2-(morpholin-4-yl)ethoxy]phenyl}acetyl)-7-{[(3S)-3-(piperidin-1-ylmethyl)-3,4-dihydro-1H-isoquinolin-2-yl]carbonyl}-3,4-dihydro-1H-isoquinolin-6-yl]-N-(5-fluoro-6-methoxypyridin-3-yl)-N-(4-hydroxyphenyl)-1,2-dimethylpyrrole-3-carboxamide] | 0.0054 | 9.1529 | 0.0497
0.5 | 2.7 | 5.4 | 1.74 | 8.9 | 17.8 | Cc1c(N(C(=O)c2cc(-c3cc4c(cc3C(=O)N3Cc5ccccc5C[C@H]3C)CN(C(=O)Cc3ccc(OCCN5CCOC6(CCCC6)C5)cc3)CC4)n(C)c2C)c2ccc(O)cc2)cc(C#N)n1C [Example 73, N-(5-cyano-1,2-dimethyl-1H-pyrrol-3-yl)-N-(4-hydroxyphenyl)-1,2-dimethyl-5-{7-[(3R)-3-methyl-1,2,3,4-tetrahydroisoquinoline-2-carbonyl]-2-{2-[4-(2-{6-oxa-9-azaspiro[4.5]decan-9-yl}ethoxy)phenyl]acetyl}-1,2,3,4-tetrahydroisoquinolin-6-yl}-1H-pyrrole-3-carboxamide] | 0.0057 | 5.25 | 0.0298
0.11 | 0.5 | 4.7 | 0.22 | 11 | 100.0 | Cc1c(C(=O)N(c2ccc(O)cc2)c2ccc(OC(C)C)c(C#N)c2)cc(-c2cc3c(cc2C(=O)N2Cc4ccccc4C[C@H]2CN2CCCCC2)CN(C(=O)Cc2ccc(OCCN4CCOCC4)cc2F)CC3)n1C [Example 168, N-(3-cyano-4-isopropoxyphenyl)-5-[2-(2-{2-fluoro-4-[2-(morpholin-4-yl)ethoxy]phenyl}acetyl)-7-{[(3S)-3-(piperidin-1-ylmethyl)-3,4-dihydro-1H-isoquinolin-2-yl]carbonyl}-3,4-dihydro-1H-isoquinolin-6-yl]-N-(4-hydroxyphenyl)-1,2-dimethylpyrrole-3-carboxamide] | 0.0075 | 7.4599 | 0.0558
